Measurements as given in patent publication US7964641B2, “Treatment of neurodegenerative conditions” (BTG International Limited, priority 2003, dated 2011).
Where “and” joins values, the source holds several entries; their conditions need not be identical. Equal values may be shown once. Entries after “also recorded” stand apart in the source; their conditions may differ. Marks after values point to notes of the source that are not given here.

Experiments:
CREAE = CREAE studies of structured lipids (SCH in SJL mice, MOG in C57BL mice); format: in vivo, C57B1/6 and SJL mice; conditions: for Severity of CREAE (in words): oral, Studies 2 to 7, 25-350 ul; for Efficacy at low dose (FIG. 20): low dose (50 ul, Study 6); for Shape of dose response: some of the studies
[1] = tested on: MOG-induced CREAE in SJL Mice; experiment: MOG-induced CREAE in SJL mice, forms of GLA (Table 3); format: in vivo; conditions: for Mean Clinical Score / No. with EAE: 100 μl of test lipid
[2] = tested on: brain and spinal cord lesions of EAE; conditions: GGG treated mice with histological scores 2 and 3
Text: Animals were culled on PSD 25. […] Variation in the severity of changes between individual mice is summarised using a semi-quantitative five point grading system.

EAE [3] = conditions: depending on dose; cited from earlier work
EAE [4] = conditions: guinea pig, in vivo; cited from earlier work

CCCCC/C=C\C/C=C\C/C=C\C/C=C\CCCC(=O)OCC(COC(=O)CCC/C=C\C/C=C\C/C=C\C/C=C\CCCCC)OC(=O)CCC/C=C\C/C=C\C/C=C\C/C=C\CCCCC [A-A-A, Glycerol trieicosotetra5-Z,8-Z,11-Z,14Z-eneoate]
Severity of CREAE (in words) (CREAE): capable of reducing severity of CREAE

CCCCC/C=C\C/C=C\C/C=C\C/C=C\CCCC(=O)OC(COC(=O)CCCCCCCCC)COC(=O)CCCCCCCCC [C-A-C, Glycerol 1,3-didecanoate 2-eicosatetra-(5-Z,8-Z,11-Z,14-Z)enoate]
Severity of CREAE (in words) (CREAE): capable of reducing severity of CREAE

CCCCC/C=C\C/C=C\C/C=C\CCCCCCC(=O)OC(COC(=O)CCCCCCCCC)COC(=O)CCCCCCCCC [C-DHGLA-C, Glycerol 1,3-didecanoate2-eicosa-(8Z,11Z,14Z)-trienoate]
Efficacy at low dose (FIG. 20) (CREAE): low dose efficacy
Severity of CREAE (in words) (CREAE): capable of reducing severity of CREAE

CCCCC/C=C\C/C=C\C/C=C\CCCCC(=O)OC(COC(=O)CCCCCCCCC)COC(=O)CCCCCCCCC [C-G-C, Glycerol 1,3-didecanoate 2-octadecatri(6-Z9-Z,12-Z)enoate]
Efficacy at low dose (FIG. 20) (CREAE): low dose efficacy
Severity of CREAE (in words) (CREAE): capable of reducing severity of CREAE
Shape of dose response (CREAE): bell shaped response curve

CCCCC/C=C\C/C=C\C/C=C\CCCCC(=O)OCC [EE-GLA]
Mean Clinical Score [1]: 3.0 ± 0.8
No. with EAE [1]: 5/6

CCCCC/C=C\C/C=C\C/C=C\CCCCC(=O)OCC(COC(=O)CCCC/C=C\C/C=C\C/C=C\CCCCC)OC(=O)CCCCCCCCC [G-C-G, Glycerol 1,3-dioctadeca-(6Z,9Z,12Z)-trienoate 2-decanoate, reference compound]
Severity of CREAE (in words) (CREAE): failed to treat the condition; also recorded: lack of efficacy

CCCCC/C=C\C/C=C\C/C=C\CCCCC(=O)OCC(COC(=O)CCCC/C=C\C/C=C\C/C=C\CCCCC)OC(=O)CCCC/C=C\C/C=C\C/C=C\CCCCC [G-G-G, glycerol tri-6,9,12-linolenate]
Severity of CREAE (in words) (CREAE): capable of reducing severity of CREAE
Shape of dose response (CREAE): bell shaped response curve
EAE severity score of the mice with histological changes [2]: 1 and 1.5

CCCCC/C=C/C/C=C/C/C=C/CCCCC(=O)OCC(COC(=O)CCCC/C=C/C/C=C/C/C=C/CCCCC)OC(=O)CCCC/C=C/C/C=C/C/C=C/CCCCC [TG-GLA]
Mean Clinical Score [1]: 1.0 ± 1.3^c
No. with EAE [1]: 3/6
Protective effect in CREAE (in words) ([1]; compared with borage oil): protective effects similar to that of the borage oil

CCCCC/C=C\C/C=C\CCCCCCCC(=O)O [linoleic acid]
Protection in acute rat EAE (EAE [3]): dose-dependent action on the clinical severity but did not abolish it
Incidence and severity of EAE (EAE [4]): partially suppresses

CCCCC/C=C\C/C=C\C/C=C\CCCCC(=O)O [γ-linolenic acid]
Protection in acute rat EAE (EAE [3]): fully protective
